Assay results reported in patent US8022091B2, “Triazole derivative” (Taisho Pharmaceutical Co., Ltd., priority 2006, dated 2011).

Tests used:
human Edg-1 (S1P1) = biological target: T1, human Edg-1 (S1P1) (Homo sapiens, UniProt P21453); assay: S1P1 binding assay: inhibition of [33P]-S1P binding to membrane fraction of HEK-293 cells transferred with the human Edg-1 (S1P1) gene; settings: for IC50: [33P]-S1P 0.1 nM, human Edg-1 (S1P1) HEK-293 membrane fraction, 1 h at 30° C., read-out: IC50 (concentration at which binding in the absence of the test compound was inhibited by 50%)
T1 construct: expressed in transfected cells; host or cells: HEK-293
How it was run: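 Membranes from S1P1-transfected HEK-293 cells incubated 1 h at 30° C in pH 7.4 Tris buffer with fatty acid-free BSA, 0.1 nM [33P]-S1P and test compound (0.1% DMSO). Filter-bound radioactivity was counted; inhibition corrected for binding to untransfected-cell membranes, and IC50 derived from concentration series.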

[1] = test compound at 10 μM, inhibition of [33P]-S1P binding to the membrane fraction of HEK-293 cells expressing human Edg-1 (S1P1)
[2] = test compound 10 μM, inhibition of [33P]-S1P binding, membrane fraction

T1 sequence (P21453 whole entry): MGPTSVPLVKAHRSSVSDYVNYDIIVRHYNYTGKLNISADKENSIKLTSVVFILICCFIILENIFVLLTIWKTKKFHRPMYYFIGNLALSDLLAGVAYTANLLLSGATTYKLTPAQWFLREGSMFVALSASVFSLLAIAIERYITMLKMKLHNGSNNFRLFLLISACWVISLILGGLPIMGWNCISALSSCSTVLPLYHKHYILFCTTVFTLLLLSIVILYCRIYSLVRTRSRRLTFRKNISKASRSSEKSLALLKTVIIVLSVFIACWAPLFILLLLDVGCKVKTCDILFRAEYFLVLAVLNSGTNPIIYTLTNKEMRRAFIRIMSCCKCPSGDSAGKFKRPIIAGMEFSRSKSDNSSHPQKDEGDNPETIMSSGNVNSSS

Compound	IC50 (human Edg-1 (S1P1))	inhibition at 10 µM (human Edg-1 (S1P1); [1])	melting point	inhibition at 10 µM (human Edg-1 (S1P1); [2])
CCn1c(Oc2ccc(C)cc2)nnc1[C@@H](C)NS(=O)(=O)c1ccc(Cl)c(Cl)c1 [Compound 3]	4.2 nM	98.7%	183.5 to 187.5 °C	–
CCn1c(Oc2ccccc2)nnc1[C@@H](C)NS(=O)(=O)c1ccc(Cl)c(Cl)c1 [Compound 7]	35.5 nM	99.4%	159.5 to 161.5 °C	–
CCn1c(Oc2cccc(NC(N)=O)c2)nnc1[C@@H](C)NS(=O)(=O)c1ccc(Cl)c(Cl)c1 [Compound 91, 3,4-Dichloro-N-[(R)-1-[4-ethyl-5-(3-ureido-phenoxy)-4H-[1,2,4]triazol-3-yl]-ethyl]-benzenesulfonamide]	–	90.6%	137 to 138 °C	–
CCn1c(Oc2cccc(-n3cnnc3)c2)nnc1[C@@H](C)NS(=O)(=O)c1ccc(Cl)c(Cl)c1 [Compound 89]	–	90.3%	101 to 103 °C	–
CCCc1ccc(Oc2nnc([C@@H](C)NS(=O)(=O)c3ccc(Cl)c(Cl)c3)n2CC)cc1 [Compound 25]	≤ 35 nM	97.5%	155 to 156 °C	–
CCn1c(Oc2ccc3cc[nH]c3c2)nnc1[C@@H](C)NS(=O)(=O)c1ccc(Cl)c(Cl)c1 [Compound 64]	≤ 35 nM	101%	223 to 224 °C	–
CCn1c(Oc2cccc(N(C)C)c2)nnc1[C@@H](C)NS(=O)(=O)c1ccc(Cl)c(Cl)c1 [Compound 28]	3.1 nM	104%	165 to 170 °C	–
CCn1c(Oc2cccc(-n3cccc3)c2)nnc1[C@@H](C)NS(=O)(=O)c1ccc(Cl)c(Cl)c1 [Compound 86, 3,4-Dichloro-N-[(R)-1-[4-ethyl-5-(3-pyrrol-1-phenoxy)-4H-[1,2,4]triazol-3-yl]-ethyl]-benzenesulfonamide]	–	107%	176 to 177 °C	–
CCn1c(Oc2ccc(F)c(C)c2)nnc1[C@@H](C)NS(=O)(=O)c1ccc(Cl)c(Cl)c1 [Compound 37]	≤ 35 nM	100%	145 to 147 °C	–
CCn1c(Oc2cccnc2)nnc1[C@@H](C)NS(=O)(=O)c1ccc(Cl)c(Cl)c1 [Compound 50]	–	92.9%	129 to 130 °C	–
CCn1c(Oc2ccccn2)nnc1[C@@H](C)NS(=O)(=O)c1ccc(Cl)c(Cl)c1 [Compound 53]	–	86.8%	172 to 173 °C	–
CCn1c(Oc2cccc(N3CCOCC3)c2)nnc1[C@@H](C)NS(=O)(=O)c1ccc(Cl)c(Cl)c1 [Compound 34]	2 nM	106%	192.5 to 195.5 °C	–
CCn1c(Oc2cc(C)c(C)c(C)c2)nnc1[C@@H](C)NS(=O)(=O)c1ccc(Cl)c(Cl)c1 [Compound 18]	≤ 35 nM	102%	189 to 194 °C	–
CCCCOc1ccc(Oc2nnc([C@@H](C)NS(=O)(=O)c3ccc(Cl)c(Cl)c3)n2CC)cc1 [Compound 21]	≤ 35 nM	96.7%	146.5 to 149.5 °C	–
CCn1c(Oc2ccc3[nH]ccc3c2)nnc1[C@@H](C)NS(=O)(=O)c1ccc(Cl)c(Cl)c1 [Compound 63]	–	105%	216.5 to 217.5 °C	–
CCCn1c(Oc2ccc(C)cc2)nnc1[C@@H](C)NS(=O)(=O)c1ccc(Cl)c(Cl)c1 [Compound 59]	–	94.3%	169.5 to 170.5 °C	–
CCn1c(Oc2ccc(F)cc2)nnc1[C@@H](C)NS(=O)(=O)c1ccc(Cl)c(Cl)c1 [Compound 12, 3,4-Dichloro-N-{(R)-1-[4-ethyl-5-(4-fluorophenoxy)-4H-[1,2,4]-triazol-3-yl]ethyl}benzenesulfonamide]	20 nM	99.2%	190 to 192 °C	–
CCn1c(Oc2ccc3ccncc3c2)nnc1[C@@H](C)NS(=O)(=O)c1ccc(Cl)c(Cl)c1 [Compound 54]	–	104%	192 to 193 °C	–
CCn1c(Oc2ccc(N3CCOCC3)cc2)nnc1[C@@H](C)NS(=O)(=O)c1ccc(Cl)c(Cl)c1 [Compound 47]	–	102%	191 to 192 °C	–

More lines, now with the values ahead:

IC50 (human Edg-1 (S1P1))	inhibition at 10 µM (human Edg-1 (S1P1); [1])	melting point	inhibition at 10 µM (human Edg-1 (S1P1); [2])	Compound
1.7 nM	93%	211.5 to 216.5 °C	–	CCn1c(Oc2cccc(N3CCN(C)CC3)c2)nnc1[C@@H](C)NS(=O)(=O)c1ccc2c(Cl)cccc2c1 [Compound 120]
1.4 nM	–	169.5 to 170.5 °C	100%	CCn1c(Oc2ccc(F)c(N3CCN(C)CC3)c2)nnc1[C@@H](C)NS(=O)(=O)c1ccc2c(Cl)cccc2c1 [Compound 680]
≤ 35 nM	104%	152 to 153 °C	–	CCn1c(Oc2cccc(N3CCN(C)CC3)c2)nnc1[C@@H](C)NS(=O)(=O)c1ccc(F)c(Cl)c1 [Compound 109]
7.3 nM	99.9%	144 to 145 °C	–	CCn1c(Oc2cccc(N3CCN(C)CC3)c2)nnc1[C@@H](C)NS(=O)(=O)c1ccc(Cl)c(Cl)c1Cl [Compound 143]
–	–	158 to 161 °C	97.7%	CCn1c(Oc2cccc(N3CCN(C)CC3)c2)nnc1[C@@H](C)NS(=O)(=O)c1ccc2c(S(C)(=O)=O)cccc2c1 [Compound 693]
≤ 35 nM	–	197 to 201 °C	100%	CCn1c(Oc2cccc(N3CCN(C)CC3)c2)nnc1[C@@H](C)NS(=O)(=O)c1ccc2ccc(Cl)cc2c1 [Compound 665]
≤ 35 nM	97.1%	162 to 165 °C	–	C[C@@H](NS(=O)(=O)c1ccc(Cl)c(Cl)c1)c1nnc(Oc2cccc(N3CCN(C)CC3)c2)n1C1CC1 [Compound 123]
≤ 35 nM	105%	169 to 173 °C	–	CCn1c(Oc2ccc(Cl)cc2)nnc1[C@@H](C)NS(=O)(=O)c1ccc2ccccc2c1 [Compound 141]
≤ 10 nM	102%	173.5 to 177 °C	–	CCn1c(Oc2ccc(F)cc2)nnc1[C@@H](C)NS(=O)(=O)c1ccc2c(Cl)cccc2c1 [Compound 137]
1.5 nM	–	192 to 193 °C	100%	CCn1c(Oc2cccc(N3CCNCC3)c2)nnc1[C@@H](C)NS(=O)(=O)c1ccc2c(Cl)cccc2c1 [Compound 688]
–	87.1%	153.5 to 155.5 °C	–	CCOc1ccc2c(Oc3nnc([C@@H](C)NS(=O)(=O)c4ccc(Cl)c(Cl)c4)n3CC)csc2c1 [Compound 117]
≤ 10 nM	103%	195.5 to 198.5 °C	–	CCn1c(Oc2cccc(N3CCN(C)CC3)c2)nnc1[C@@H](C)NS(=O)(=O)c1ccc2ccccc2c1 [Compound 121]
≤ 10 nM	99.9%	167.5 to 169.5 °C	–	CCn1c(Oc2cccc(N3CCC(O)CC3)c2)nnc1[C@@H](C)NS(=O)(=O)c1ccc(Cl)c(Cl)c1 [Compound 93, 3,4-Dichloro-N-((R)-1-[4-ethyl-5-[3-(4-hydroxy-piperidin-1-yl)-phenoxy]-4H-[1,2,4]triazol-3-yl]-ethyl)-benzenesulfonamide]
≤ 35 nM	101%	142 to 143 °C	–	CCn1c(Oc2cccc(NS(=O)(=O)N(C)C)c2)nnc1[C@@H](C)NS(=O)(=O)c1ccc(Cl)c(Cl)c1 [Compound 101]
–	97.4%	178.5 to 180 °C	–	C[C@@H](NS(=O)(=O)c1ccc(Cl)c(Cl)c1)c1nnc(Oc2ccc(F)cc2)n1C1CC1 [Compound 124]
≤ 35 nM	98.1%	183 to 184 °C	–	CCn1c(Oc2cccc(N3CCN(C)CC3)c2)nnc1[C@@H](C)NS(=O)(=O)c1ccc(C(F)(F)F)cc1 [Compound 142]
≤ 10 nM	99.5%	95 to 104 °C	–	CCn1c(Oc2ccc3cc[nH]c3c2)nnc1[C@@H](C)NS(=O)(=O)c1ccc(C)c(Cl)c1 [Compound 132]
≤ 10 nM	99.2%	171 to 173 °C	–	CCn1c(Oc2cccc(N3CCN(C)CC3)c2)nnc1[C@@H](C)NS(=O)(=O)c1ccc(Br)c(Br)c1 [Compound 112]
–	91.2%	146.5 to 147.5 °C	–	CCn1c(Oc2ccc(F)cc2)nnc1[C@@H](C)NS(=O)(=O)c1ccc(F)c(Cl)c1 [Compound 103]
≤ 10 nM	–	189 to 189.5 °C	100%	CCn1c(Oc2ccc(F)c(N3CCN(C)CC3)c2)nnc1[C@@H](C)NS(=O)(=O)c1ccc(Cl)c(Cl)c1 [Compound 681]
–	101%	188.5 to 192 °C	–	CCn1c(Oc2ccc3cc[nH]c3c2)nnc1[C@@H](C)NS(=O)(=O)c1cccc(C(F)(F)F)c1 [Compound 135]
≤ 35 nM	104%	117 to 118 °C	–	CCn1c(Oc2cccc(NS(C)(=O)=O)c2)nnc1[C@@H](C)NS(=O)(=O)c1ccc(Cl)c(Cl)c1 [Compound 102, 3,4-Dichloro-N-[(R)-1-[4-ethyl-5-(3-methanesulfonylamino-phenoxy)-4H-[1,2,4]triazol-3-yl]-ethyl]-benzenesulfonamide]
–	100%	143 to 144 °C	–	CCn1c(Oc2cccc(NC(=O)N3CCOCC3)c2)nnc1[C@@H](C)NS(=O)(=O)c1ccc(Cl)c(Cl)c1 [Compound 98]
≤ 10 nM	101%	164 to 169.5 °C	–	CCn1c(Oc2cccc(N3CCN(C)CC3)c2)nnc1[C@@H](C)NS(=O)(=O)c1ccc(C)c(Cl)c1 [Compound 133]
